Assays:
Details in all cases: 72 h
Calu-3 [1] = assay: drug sensitivity score (DSS) for viability; higher = more toxic; extreme values may be limits of the assay
Vero E6 [2] = assay: as above
U2OS [3] = assay: as above
Calu-3 [4] = assay: cell viability relative to DMSO; higher = less toxic
Vero E6 [5] = assay: as above
U2OS [6] = assay: as above
Calu-3 [7] = assay: relative viability EC50 (midpoint between 100% and the lowest measured viability); higher = less toxic
Vero E6 [8] = assay: as above
U2OS [9] = assay: as above
Caco-2 [10] = assay: drug sensitivity score (DSS) for viability; higher = more toxic; extreme values may be limits of the assay
HepG2 [11] = assay: as above
Caco-2 [12] = assay: cell viability relative to DMSO; higher = less toxic
HepG2 [13] = assay: as above
Caco-2 [14] = assay: relative viability EC50 (midpoint between 100% and the lowest measured viability); higher = less toxic
HepG2 [15] = assay: as above

Compound | drug sensitivity score (Calu-3 [1]) | drug sensitivity score (Vero E6 [2]) | drug sensitivity score (U2OS [3]) | cell viability (Calu-3 [4]; 1 nM) | cell viability (Calu-3 [4]; 10 nM) | cell viability (Calu-3 [4]; 100 nM) | cell viability (Calu-3 [4]; 1000 nM) | cell viability (Calu-3 [4]; 10000 nM) | cell viability (Vero E6 [5]; 1 nM) | cell viability (Vero E6 [5]; 10 nM) | cell viability (Vero E6 [5]; 100 nM) | cell viability (Vero E6 [5]; 1000 nM) | cell viability (Vero E6 [5]; 10000 nM) | cell viability (U2OS [6]; 1 nM) | cell viability (U2OS [6]; 10 nM) | cell viability (U2OS [6]; 100 nM) | cell viability (U2OS [6]; 1000 nM) | cell viability (U2OS [6]; 10000 nM) | relative viability EC50 (Calu-3 [7]) | relative viability EC50 (Vero E6 [8]) | relative viability EC50 (U2OS [9]) | drug sensitivity score (Caco-2 [10]) | drug sensitivity score (HepG2 [11]) | cell viability (Caco-2 [12]; 1 nM) | cell viability (Caco-2 [12]; 10 nM) | cell viability (Caco-2 [12]; 100 nM) | cell viability (Caco-2 [12]; 1000 nM) | cell viability (Caco-2 [12]; 10000 nM) | cell viability (HepG2 [13]; 1 nM) | cell viability (HepG2 [13]; 10 nM) | cell viability (HepG2 [13]; 100 nM) | cell viability (HepG2 [13]; 1000 nM) | cell viability (HepG2 [13]; 10000 nM) | relative viability EC50 (Caco-2 [14]) | relative viability EC50 (HepG2 [15])
Cn1c(=O)c2[nH]cnc2n(C)c1=O [aminophylline] | 0 | 0 | 0 | 99.2% | 114% | 100% | 108% | 114% | 99.5% | 100% | 94.9% | 93.1% | 112% | 99.1% | 98.9% | 94.9% | 101% | 103% | > 10 µM | > 10 µM | > 10 µM |  |  |  |  |  |  |  |  |  |  |  |  |  | 
CN1C[C@H](C(=O)N[C@]2(C)O[C@@]3(O)[C@@H]4CCCN4C(=O)[C@H](Cc4ccccc4)N3C2=O)C[C@@H]2c3cccc4[nH]cc(c34)C[C@H]21 [dihydroergotamine] | 0 |  |  | 102% | 96.9% | 96.3% | 95.1% | 114% |  |  |  |  |  |  |  |  |  |  | > 10 µM |  |  | 0 | 0 | 102% | 98.3% | 108% | 111% | 99.7% | 109% | 113% | 105% | 109% | 97.3% | > 10 µM | > 10 µM
COc1cc([C@@H]2c3cc4c(cc3[C@@H](O[C@@H]3O[C@@H]5CO[C@@H](C)O[C@H]5[C@H](O)[C@H]3O)[C@H]3COC(=O)[C@H]23)OCO4)cc(OC)c1O [etoposide] | 5.3 | 0.7 | 3.8 | 83.1% | 92.5% | 90.4% | 81.1% | 40.7% | 104% | 105% | 103% | 98.7% | 80.2% | 100% | 104% | 99.9% | 94.5% | 46.1% | 1.52 µM | > 10 µM | 2.32 µM | 2.7 | 7.2 | 93.5% | 97.1% | 92.2% | 97.7% | 54.2% | 111% | 85.2% | 96.3% | 65.6% | 43.1% |  | 0.701 µM
CCCCCCOc1ccccc1C(N)=O [exalamide] | 0 | 0 | 0 | 106% | 115% | 107% | 98.3% | 113% | 110% | 105% | 102% | 105% | 86.9% | 95.6% | 92.7% | 101% | 93.1% | 94.3% | > 10 µM | > 10 µM | > 10 µM |  | 0 |  |  |  |  |  | 110% | 96.1% | 95.9% | 109% | 90% |  | > 10 µM
CC1=C(/C=C/C(C)=C/C=C/C(C)=C/C(=O)Nc2ccc(O)cc2)C(C)(C)CCC1 [fenretinide] | 0.9 | 0 | 0.1 | 98.9% | 99.9% | 93.3% | 89.5% | 84% | 95% | 98.9% | 101% | 101% | 91.1% | 97.7% | 97.8% | 99.5% | 104% | 86.8% | > 10 µM | > 10 µM | > 10 µM | 2.5 | 1.2 | 98.7% | 103% | 100% | 93.2% | 67.9% | 99.6% | 92.6% | 99.1% | 91.3% | 80% |  | > 10 µM
NCC1(CC(=O)O)CCCCC1 [gabapentin] | 0 | 0 |  | 120% | 118% | 100% | 110% | 94.4% | 96% | 93.6% | 89.3% | 94.3% | 92.5% |  |  |  |  |  | > 10 µM | > 10 µM |  |  | 0 |  |  |  |  |  | 102% | 97.6% | 94.2% | 89.3% | 108% |  | > 10 µM
Nc1ccn([C@@H]2O[C@H](CO)[C@@H](O)C2(F)F)c(=O)n1 [gemcitabine] | 8.2 | 11.9 | 8.6 | 97.5% | 106% | 86.5% | 63.9% | 40.8% | 102% | 102% | 62.3% | 59.4% | 61.4% | 97% | 105% | 72.9% | 67.8% | 74.1% | 0.529 µM |  |  | 9.9 | 23.1 | 100% | 89% | 72.5% | 66.2% | 72% | 99.5% | 71.2% | 38.3% | 38.9% | 40.3% |  | 0.0105 µM
CCCCCCCCCCCCCC(=O)OC(C)C [isopropyl-myristate] | 0 | 0 |  | 98.3% | 105% | 101% | 105% | 94.1% | 101% | 104% | 91.5% | 96.8% | 96.4% |  |  |  |  |  | > 10 µM | > 10 µM |  | 0 |  | 111% | 97% | 110% | 96.9% | 98.6% |  |  |  |  |  | > 10 µM | 
CNC(=O)[C@@H](NC(=O)[C@H](CC(C)C)[C@H](O)C(=O)NO)C(C)(C)C [marimastat] | 3.6 | 0 | 0 | 96.2% | 102% | 86.4% | 87.4% | 81.3% | 108% | 103% | 100% | 104% | 90.7% | 98.7% | 100% | 92.9% | 95.9% | 91.5% | > 10 µM | > 10 µM | > 10 µM | 1.3 | 0 | 79.5% | 106% | 89.9% | 99.9% | 70.5% | 103% | 99.7% | 121% | 106% | 113% |  | > 10 µM
O=[N+]([O-])c1cncn1CCN1CCOCC1 [nimorazole] | 0 |  |  | 102% | 105% | 94.6% | 108% | 93.9% |  |  |  |  |  |  |  |  |  |  | > 10 µM |  |  | 0 | 0 | 102% | 107% | 94.8% | 106% | 96.3% | 118% | 112% | 97.2% | 98.7% | 117% | > 10 µM | > 10 µM
CC(=O)c1c(C)c2cnc(Nc3ccc(N4CCNCC4)cn3)nc2n(C2CCCC2)c1=O [palbociclib] | 0 | 7.2 | 3.4 | 101% | 90.6% | 98.4% | 85.8% | 92.8% | 97.9% | 101% | 96.4% | 77.3% | 26.9% | 104% | 94.8% | 98.8% | 92.3% | 57.3% | > 10 µM | 1.4 µM |  | 4.5 | 9.7 | 97.1% | 90.6% | 95.6% | 86.2% | 50.4% | 92.5% | 88.5% | 80.7% | 65.9% | 29.4% |  | 0.525 µM
CC[C@@H]([C@H](C)O)n1ncn(-c2ccc(N3CCN(c4ccc(OC[C@@H]5CO[C@@](Cn6cncn6)(c6ccc(F)cc6F)C5)cc4)CC3)cc2)c1=O [posaconazole] | 0 | 4.3 | 0 | 106% | 103% | 91.5% | 92.9% | 93% | 98.8% | 106% | 93.4% | 92.8% | 43.2% | 92.9% | 101% | 93.7% | 90% | 93.8% | > 10 µM | 2.13 µM | > 10 µM | 2.4 | 4.5 | 97.6% | 99% | 94.3% | 86.7% | 70.2% | 97.8% | 86.9% | 105% | 96.6% | 27.5% |  | 2.81 µM
O=C(C=Cc1ccccc1)NC(NC(=S)Nc1ccc(Cl)cc1)C(Cl)(Cl)Cl (stereo unspecified) [sal003] | 0 | 0.5 | 0 | 106% | 99.8% | 95.1% | 108% | 95.6% | 94.9% | 102% | 100% | 100% | 81.2% | 98.8% | 94.6% | 98.2% | 93.7% | 91.5% | > 10 µM | > 10 µM | > 10 µM | 2.2 | 4.6 | 97.6% | 96% | 101% | 91.1% | 74.1% | 104% | 102% | 96.2% | 99% | 19.1% |  | 3.08 µM
O=C1NC(O)CCN1[C@@H]1O[C@H](CO)[C@@H](O)[C@H]1O (stereo partly specified) [tetrahydrouridine] | 0 |  |  | 108% | 102% | 103% | 101% | 96.2% |  |  |  |  |  |  |  |  |  |  | > 10 µM |  |  | 0 | 0 | 101% | 100% | 95.2% | 102% | 99.2% | 112% | 101% | 98.1% | 99.1% | 110% | > 10 µM | > 10 µM
CN1CCN(CC/C=C2/c3ccccc3Sc3ccc(S(=O)(=O)N(C)C)cc32)CC1 [thiothixene] | 0.6 | 0.2 | 0.3 | 96.4% | 102% | 119% | 104% | 77.6% | 99.5% | 108% | 97.2% | 91.8% | 88.1% | 95.7% | 97% | 95.6% | 99.4% | 84.5% | > 10 µM | > 10 µM | > 10 µM | 1.6 | 2.6 | 107% | 104% | 103% | 97.5% | 71.4% | 94.2% | 102% | 104% | 87.6% | 73.3% |  | 
C[C@H](NC(=O)/C(C#N)=C/c1ccc(O)c(O)c1)c1ccccc1 [tyrphostin-AG-835] | 0 | 0 | 0 | 89.4% | 96.8% | 109% | 97.2% | 98.2% | 98% | 90.4% | 98.5% | 89.6% | 89.6% | 97.2% | 98.5% | 98.3% | 98.3% | 91% | > 10 µM | > 10 µM | > 10 µM | 1.5 | 1 | 92.2% | 97.2% | 90.5% | 93.7% | 74.6% | 109% | 90.9% | 106% | 97.3% | 78.9% |  | > 10 µM

Source: the supplement of paper PMC13380429
